Results published in ChEMBL document CHEMBL5725746, “Spiro-thiazolones” (2018).

Target: Vasopressin V1a receptor (Homo sapiens, UniProt P37288)
Assay: competition binding assay: The human V1a receptor was cloned by RT-PCR from total human liver RNA. The coding sequence was subcloned in an expression vector after sequencing to confirm the identity of the amplified sequence. […] Cell membranes were prepared from HEK293 cells transiently transfected with the expression vector and grown in 20 liter fermenters with the following protocol.50 g of cells are re-suspended in 30 ml freshly prepared ice cold Lysis buffer (50 mM HEPES, 1 mM EDTA, 10 mM MgCl2 adjusted to pH=7.4+complete cocktail of protease inhibitor (Roche Diagnostics)). Homogenized with Polytron for 1 min and sonicated on ice for 2×2 minutes at 80% intensity (Vibracell sonicator). The preparation is centrifuged 20 min at 500 g at 4° C., the pellet is discarded and the supernatant centrifuged 1 hour at 43,000 g at 4° C. (19,000 rpm). The pellet is re-suspended in 12.5 ml Lysis buffer+12.5 ml Sucrose 20% and homogenized using a Polytron for 1-2 min. The protein concentration is determined by the Bradford method and aliquots are stored at −80° C. until use. For binding studies 60 mg Yttrium silicate SPA beads (Amersham) are mixed with an aliquot of membrane in binding buffer (50 mM Tris, 120 mM NaCl, 5 mM KCl, 2 mM CaCl2, 10 mM MgCl2) for 15 minutes with mixing. […]

Chain of Vasopressin V1a receptor (P37288 whole entry): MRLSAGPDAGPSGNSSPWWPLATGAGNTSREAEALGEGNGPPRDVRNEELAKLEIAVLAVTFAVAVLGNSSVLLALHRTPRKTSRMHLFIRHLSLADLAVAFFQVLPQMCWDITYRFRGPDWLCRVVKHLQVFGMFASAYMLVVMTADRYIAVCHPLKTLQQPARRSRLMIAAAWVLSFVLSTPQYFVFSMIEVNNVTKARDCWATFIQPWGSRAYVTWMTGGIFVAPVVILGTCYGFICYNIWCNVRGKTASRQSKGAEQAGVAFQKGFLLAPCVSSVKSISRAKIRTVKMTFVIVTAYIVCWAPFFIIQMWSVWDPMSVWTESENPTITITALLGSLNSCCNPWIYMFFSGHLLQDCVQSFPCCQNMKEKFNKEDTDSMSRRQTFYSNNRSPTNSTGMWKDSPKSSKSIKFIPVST

| Ki [nM] | SMILES |
| --- | --- |
| 1 | C/C(=C1/SC(N2CCC3(CC2)OCc2ccccc23)=NC1=O)c1nccs1 |
| 3.16 | C/C(=C1\SC(N2CCC3(CC2)OCc2ccccc23)=NC1=O)c1ccc(Cl)nc1 |
